From patent publication US20210024542A1 (Torcept Therapeutics, Inc., priority 2018, published 2021)

Legend:
T24 = assay: OncoPanel cell proliferation assay, T24; type: cell-based, human; conditions: for Cell Count Activity Area: T24, scale 0-10
Procedure: (§1) Cells were grown in RPMI 1640, 10% FBS, 2 mM L-alanyl-L-glutamine, 1 mM Na pyruvate, or a special medium. Cells were seeded into 384-well plates and incubated in a humidified atmosphere of 5% CO2 at 37° C. Compounds were added the day following cell seeding. At the same time, a time zero untreated cell plate was generated. After a 3-day incubation period, cells were fixed and stained to allow fluorescence imaging of nuclei. Compounds (1 mM stock solutions) were serially diluted in half-log steps from the highest test concentration ([…]), and assayed over 10 concentrations with a maximum assay concentration of 0.1% DMSO. Automated fluorescence microscopy was carried out using a Molecular Devices ImageXpress Micro XL high-content imager, and images were collected with a 4× objective. 16-bit TIFF images were acquired and analyzed with MetaXpress 5.1.0.41 software.
(§2) Cell proliferation was measured by the fluorescence intensity of an incorporated nuclear dye. The output is referred to as the relative cell count, where the measured nuclear intensity is transformed to percent of control (POC) using the following formula: […]
(§3) Cellular response parameters were calculated using nonlinear regression to a sigmoidal single-site dose response model:
(§4) Where y is a response measured at concentration x, A and B are the lower and upper limits of the response, C is the concentration at the response midpoint (EC50), and D is the Hill Slope (Ref. 1).
(§5) EC50 is the test compound concentration at the curve inflection point or half the effective response (parameter C of the fitted curve solution). GI50 is the concentration needed to reduce the observed growth by half (midway between the curve maximum and the time zero value). “Cell Count Activity Area” is an estimate of the integrated area above the curve (Barretina, et al. The Cancer Cell Line Encyclopedia enables predictive modelling of anticancer drug sensitivity. Nature 483: 603-607). […] In rare instances, values <0 or >10 may be observed. […] Curve-fitting, calculations, and report generation was performed using a custom data reduction engine and MathIQ based software (AIM).

ST486 = assay: OncoPanel cell proliferation assay, ST486; type: cell-based, human; conditions: for Cell Count Activity Area: ST486, scale 0-10
Procedure: as §1, §2, §3, §4, §5

SNU-5 = assay: OncoPanel cell proliferation assay, SNU-5; type: cell-based, human
Procedure: as §1, with “Cells” for “Cells were grown in RPMI 1640, 10% FBS, 2 mM L-alanyl-L-glutamine, 1 mM Na pyruvate, or a special medium. Cells”
as §2, §3, §4
GI50 is the concentration needed to reduce the observed growth by half (midway between the curve maximum and the time zero value). […] In rare instances, values <0 or >10 may be observed. […] Curve-fitting, calculations, and report generation was performed using a custom data reduction engine and MathIQ based software (AIM).

NCI-H510A = assay: OncoPanel cell proliferation assay, NCI-H510A; type: cell-based, human; conditions: for Cell Count Activity Area: scale 0-10
Procedure: as §1, §2, §3, §4, §5

CAMA-1 = assay: OncoPanel cell proliferation assay, CAMA-1; conditions: for Cell Count Activity Area: CAMA-1, scale 0-10
Procedure: (§6) Cells were seeded into 384-well plates and incubated in a humidified atmosphere of 5% CO2 at 37° C. Compounds were added the day following cell seeding. At the same time, a time zero untreated cell plate was generated. After a 3-day incubation period, cells were fixed and stained to allow fluorescence imaging of nuclei. Compounds (1 mM stock solutions) were serially diluted in half-log steps from the highest test concentration (1 micromol), and assayed over 10 concentrations with a maximum assay concentration of 0.1% DMSO. Automated fluorescence microscopy was carried out using a Molecular Devices ImageXpress Micro XL high-content imager, and images were collected with a 4× objective. 16-bit TIFF images were acquired and analyzed with MetaXpress 5.1.0.41 software.

G-402 = assay: OncoPanel cell proliferation assay, G-402; type: cell-based, human; conditions: G-402, scale 0-10
Procedure: as §1, §2, §3, §4, §5

SK-N-AS = assay: OncoPanel cell proliferation assay, SK-N-AS; type: cell-based, human; conditions: for Cell Count Activity Area: scale 0-10
Procedure: as §1, §2, §3, §4, §5

CaOV3 = assay: OncoPanel cell proliferation assay, CaOV3; type: cell-based, human; conditions: for Cell Count Activity Area: CaOV3, scale 0-10
Procedure: as §1, §2, §3, §4, §5

RKOE6 = assay: OncoPanel cell proliferation assay, RKOE6; conditions: RKOE6, scale 0-10
Procedure: as §6

Hs 729 = assay: OncoPanel cell proliferation assay, Hs 729; type: cell-based, human; conditions: for Cell Count Activity Area: Hs 729, scale 0-10
Procedure: as §1, §2, §3, §4, §5

CRO-AP2 = assay: OncoPanel cell proliferation assay, CRO-AP2; type: cell-based, human; conditions: CRO-AP2, scale 0-10
Procedure: as §1, §2, §3, §4, §5

SK-UT-1 = assay: OncoPanel cell proliferation assay, SK-UT-1; conditions: for Cell Count Activity Area: SK-UT-1, scale 0-10
Procedure: as §6

[1] = Homo sapiens, 72 h, 3-day incubation, read-out: Cell Count EC50
[2] = Homo sapiens, 72 h, 3-day incubation, read-out: Cell Count IC50

Structure (SMILES)	Cell Count Activity Area (T24)	Cell Count Activity Area (ST486)	Cell Count Activity Area (NCI-H510A)	Cell Count Activity Area (CAMA-1)	Cell Count Activity Area (G-402)	Cell Count Activity Area (SK-N-AS)	Cell Count Activity Area (CaOV3)	Cell Count Activity Area (RKOE6)	Cell Count Activity Area (Hs 729)	Cell Count Activity Area (CRO-AP2)	Cell Count Activity Area (SK-UT-1)	further results
CO[C@H]1C[C@@H]2CC[C@@H](C)[C@@](O)(O2)C(=O)C(=O)N2CCCC[C@H]2C(=O)O[C@H]([C@H](C)C[C@@H]2CC[C@@H](O)[C@H](OC)C2)CC(=O)[C@H](C)/C=C(\C)[C@@H](O)[C@@H](OC)C(=O)[C@H](C)C[C@H](C)/C=C/C=C/C=C/1C [Rapamycin, reference compound]	4.39	3.99	1.63	4.07	4.68	3.58	2.40	4.61	0.55	6.22	3.23	IC50 (T24; Homo sapiens, T-24, 72 h, T24, 3-day incubation, read-out: Cell Count IC50): 0.0021 µM; IC50 (ST486; Homo sapiens, 72 h, ST486, 3-day incubation, read-out: Cell Count IC50): > 1 µM; GI50 (SNU-5; Homo sapiens, 72 h, SNU-5, 3-day incubation, read-out: Cell Count GI50): 0.024 µM; IC50 (SNU-5; Homo sapiens, 72 h, SNU-5, 3-day incubation, read-out: Cell Count IC50): > 1 µM; EC50 (NCI-H510A; [1]): > 1 µM; GI50 (NCI-H510A; Homo sapiens, 72 h, 3-day incubation, read-out: Cell Count GI50): > 1 µM; IC50 (NCI-H510A; [2]): > 1 µM; IC50 (SK-N-AS; [2]): > 1 µM; EC50 (CaOV3; Homo sapiens, Caov-3, 72 h, CaOV3, 3-day incubation, read-out: Cell Count EC50): > 1 µM; GI50 (CaOV3; Homo sapiens, Caov-3, 72 h, CaOV3, 3-day incubation, read-out: Cell Count GI50): > 1 µM; IC50 (CaOV3; Homo sapiens, Caov-3, 72 h, CaOV3, 3-day incubation, read-out: Cell Count IC50): > 1 µM; EC50 (Hs 729; Homo sapiens, 72 h, Hs 729, 3-day incubation, read-out: Cell Count EC50): > 1 µM; GI50 (Hs 729; Homo sapiens, 72 h, Hs 729, 3-day incubation, read-out: Cell Count GI50): > 1 µM; IC50 (Hs 729; Homo sapiens, 72 h, Hs 729, 3-day incubation, read-out: Cell Count IC50): > 1 µM; EC50 (SK-UT-1; Homo sapiens, SK-UT-1, 72 h, read-out: Cell Count EC50): 0.0002 µM; GI50 (SK-UT-1; Homo sapiens, SK-UT-1, 72 h, read-out: Cell Count GI50): > 1 µM; IC50 (SK-UT-1; Homo sapiens, SK-UT-1, 72 h, read-out: Cell Count IC50): > 1 µM
CN[C@@H]1C[C@H]2O[C@@](C)([C@@H]1OC)n1c3ccccc3c3c4c(c5c6ccccc6n2c5c31)C(=O)NC4 [Staurosporine, reference compound]	5.96	4.89	1.68	2.99	5.93	4.83	5.31	3.96	4.06	3.99	3.46	Cell Count Activity Area (SNU-5; SNU-5, scale 0-10): 2.58; GI50 (CAMA-1; Homo sapiens, CAMA-1, 72 h, read-out: Cell Count GI50): 0.012 µM; IC50 (CAMA-1; Homo sapiens, CAMA-1, 72 h, read-out: Cell Count IC50): 0.099 µM; EC50 (SK-N-AS; [1]): 0.0017 µM
